# Assay results published in patent US7790724B2, “c-fms kinase inhibitors” (Janssen Pharmaceutica N.V., priority 2003, dated 2010).
# Where a name gives a salt, the structure may show the parent alone. Read-outs that look alike come from different tables or passages of the source.
# Target: T1, c-fms (Homo sapiens, UniProt P07333)
# T1 construct: 3DP
# Experiment: autophosphorylation, fluorescence polarization competition immunoassay for c-fms inhibition
# Format: biochemical
# Settings: for inhibition at 10 µM: read-out: % Inhibition (at 10 μM); for inhibition at 2 µM: @ 2 μM compound (values marked *)
# Method: The assay was performed in black 96-well microplates (LJL BioSystems). The assay buffer used was 100 mM HEPES, pH 7.5, 1 mM DTT, 0.01% (v/v) Tween-20. Compounds were diluted in assay buffer containing 4% DMSO just prior to the assay. […] The kinase reaction was initiated by adding 2 μL of 5 mM ATP (Sigma) in assay buffer. The final concentrations in the assay were 10 nM c-fms, 1 mM ATP, 5 mM MgCl2, 2% DMSO. Control reactions were ran in each plate: in positive and negative control wells, assay buffer (made 4% in DMSO) was substituted for the compound; in addition, positive control wells received 1.2 μL of 50 mM EDTA.
# The plates were incubated at room temperature for 45 min. At the end of the incubation, the reaction was quenched with 1.2 μL of 50 mM EDTA (EDTA was not added to the positive control wells at this point; see above). Following a 5-min incubation, each well received 10 μL of a 1:1:3 mixture of anti-phosphotyrosine antibody, 10×, PTK green tracer, 10× (vortexed), FP dilution buffer, respectively (all from PanVera, cat. # P2837). The plate was covered, incubated for 30 min at room temperature and the fluorescence polarization was read on the Analyst. […] The reported IC50 values are averages of three independent measurements.
# [1] = 10 nM c-fms, 1 mM ATP, averages of three independent measurements, read-out: IC50
# [2] = determined in a similar fashion for Examples 11-68, read-out: IC-50 (activites below 1 μM)
# T1 sequence (P07333 20-972): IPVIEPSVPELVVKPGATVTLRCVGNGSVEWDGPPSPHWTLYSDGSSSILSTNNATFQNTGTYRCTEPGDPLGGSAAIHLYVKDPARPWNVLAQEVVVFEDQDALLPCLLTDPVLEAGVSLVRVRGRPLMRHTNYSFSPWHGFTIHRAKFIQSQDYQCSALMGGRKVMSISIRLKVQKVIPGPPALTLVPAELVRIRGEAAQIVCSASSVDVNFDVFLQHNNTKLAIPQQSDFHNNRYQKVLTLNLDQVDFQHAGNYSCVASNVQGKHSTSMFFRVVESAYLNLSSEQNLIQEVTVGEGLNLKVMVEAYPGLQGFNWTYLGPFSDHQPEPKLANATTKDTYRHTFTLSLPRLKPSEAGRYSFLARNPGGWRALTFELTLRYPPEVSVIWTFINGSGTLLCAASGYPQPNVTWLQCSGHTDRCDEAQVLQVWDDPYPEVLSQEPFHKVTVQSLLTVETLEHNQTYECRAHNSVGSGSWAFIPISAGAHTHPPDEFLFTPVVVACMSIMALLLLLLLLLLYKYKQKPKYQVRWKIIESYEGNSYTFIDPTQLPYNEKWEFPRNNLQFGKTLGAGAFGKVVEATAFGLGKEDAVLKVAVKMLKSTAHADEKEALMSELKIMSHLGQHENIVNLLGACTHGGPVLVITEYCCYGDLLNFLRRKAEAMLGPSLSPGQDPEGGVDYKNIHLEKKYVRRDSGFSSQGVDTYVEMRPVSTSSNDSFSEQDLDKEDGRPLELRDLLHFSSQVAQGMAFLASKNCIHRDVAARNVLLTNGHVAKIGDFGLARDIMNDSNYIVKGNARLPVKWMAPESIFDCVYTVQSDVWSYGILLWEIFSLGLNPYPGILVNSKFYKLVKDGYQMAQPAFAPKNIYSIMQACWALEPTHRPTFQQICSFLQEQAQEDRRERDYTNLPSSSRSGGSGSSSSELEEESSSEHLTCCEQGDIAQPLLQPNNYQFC
Compound,IC50 [1],inhibition at 10 µM (at 10 μM compound),other results
O=C(Nc1ccccc1N1CCC(CCO)CC1)c1ccc([N+](=O)[O-])o1,< 1 µM,100%,–
CC1CCN(c2ccccc2NC(=O)c2ccc(C#N)o2)CC1,< 1 µM,97%,–
N#Cc1ccc(C(=O)Nc2c(F)cccc2N2CCCCC2)o1,> 1 µM,61%,–
CC1CCN(c2ccccc2NC(=O)c2ccc([N+](=O)[O-])o2)CC1,–,–,IC50: < 1 µM; inhibition at 10 µM: 92%
O=C(Nc1ccccc1N1CCC(CO)CC1)c1ccc([N+](=O)[O-])o1,< 1 µM,100%,–
COc1ccc(N2CCCCC2)c(NC(=O)c2ccc(C#N)o2)c1,< 1 µM,–,inhibition at 2 µM: 99%
Cc1cccc(N2CCCCC2)c1NC(=O)c1ccc(C#N)o1,> 1 µM,50%,–
C[C@H]1CN(c2ccccc2NC(=O)c2ccc([N+](=O)[O-])o2)C[C@H](C)O1,> 1 µM,80%,–
C[C@@H]1CN(c2ccccc2NC(=O)c2ccc([N+](=O)[O-])o2)C[C@H](C)O1,> 1 µM,72%,–
CCOc1ccccc1NC(=O)c1ccc([N+](=O)[O-])o1,> 1 µM,56%,–
N#Cc1ccc(C(=O)Nc2ccccc2N2CCC(O)CC2)o1,> 1 µM,–,inhibition at 2 µM: 90%
N#Cc1ccc(C(=O)Nc2ccccc2N2CCC(CCO)CC2)o1,< 1 µM,–,inhibition at 2 µM: 97%
N#Cc1ccc(C(=O)Nc2ccc(Cl)cc2N2CCCCC2)o1,< 1 µM,–,inhibition at 2 µM: 90%
CS(=O)(=O)NCc1ccc(N2CCCCC2)c(NC(=O)c2ccc(C#N)o2)c1,< 1 µM,–,inhibition at 2 µM: 100%
N#Cc1ccc(C(=O)Nc2cc(CNCC(O)CO)ccc2N2CCCCC2)o1 (stereo not drawn),< 1 µM,–,inhibition at 2 µM: 93%
N#Cc1ccc(N2CCCCC2)c(NC(=O)c2ccc(C#N)o2)c1,< 1 µM,–,inhibition at 2 µM: 95%
N#Cc1ccc(C(=O)Nc2ccccc2N2CCC(CO)CC2)o1,< 1 µM,–,inhibition at 2 µM: 93%
"CC(C)(O)c1ccc(NC(=O)c2nc(C#N)c[nH]2)c(C2=CCCCC2)c1 [Example 12, 4-Cyano-1H-imidazole-2-carboxylic acid [2-cyclohex-1-enyl-4-(1-hydroxy-1-methyl-ethyl)-phenyl]-amide]",–,–,IC50 [2]: < 1 µM
"COC(C)(C)c1ccc(NC(=O)c2nc(C#N)c[nH]2)c(C2=CCCCC2)c1 [Example 13, 4-Cyano-1H-imidazole-2-carboxylic acid [2-cyclohex-1-enyl-4-(1-methoxy-1-methyl-ethyl)-phenyl]-amide]",–,–,IC50 [2]: < 1 µM
"CC(C)(N)c1ccc(NC(=O)c2nc(C#N)c[nH]2)c(C2=CCCCC2)c1 [Example 14, 4-Cyano-1H-imidazole-2-carboxylic acid [4-(1-amino-1-methyl-ethyl)-2-cyclohex-1-enyl-phenyl]-amide, acetic acid salt]",–,–,IC50 [2]: < 1 µM
"CC(C)c1ccc(NC(=O)c2nc(C#N)c[nH]2)c(C2=CCCCC2)c1 [Example 22, 4-Cyano-1H-imidazole-2-carboxylic acid (2-cyclohex-1-enyl-4-isopropyl-phenyl)-amide]",–,–,IC50 [2]: < 1 µM
"CC1CCN(c2ccccc2NC(=O)c2nc(C#N)c[nH]2)CC1 [Example 41, 4-Cyano-1H-imidazole-2-carboxylic acid [2-(4-methyl-piperidin-1-yl)-phenyl]-amide trifluoroacetic acid salt]",–,–,IC50 [2]: < 1 µM
"CC1(C)CC=C(c2ncccc2NC(=O)c2nc(C#N)c[nH]2)CC1 [Example 42, 4-Cyano-1H-imidazole-2-carboxylic acid [2-(4,4-dimethyl-cyclohex-1-enyl)-pyridin-3-yl]-amide trifluoroacetic acid salt]",–,–,IC50 [2]: < 1 µM
"CC1(C)CCN(c2ncccc2NC(=O)c2nc(C#N)c[nH]2)CC1 [Example 63, 4-Cyano-1H-imidazole-2-carboxylic acid (4,4-dimethyl-3,4,5,6-tetrahydro-2H-[1,2′]bipyridinyl-3′-yl)-amide trifluoroacetic acid salt]",–,–,IC50 [2]: < 1 µM
"CC1(C)CC=C(c2ccccc2NC(=O)c2nc(C#N)c[nH]2)CC1 [Example 67, 4-Cyano-1H-imidazole-2-carboxylic acid [2-(4,4-dimethyl-cyclohex-1-enyl)-phenyl]-amide]",–,–,IC50 [2]: < 1 µM

# Further lines, with some results ahead:
IC50 [1],inhibition at 10 µM (at 10 μM compound),Compound,other results
< 1 µM,99%,N#Cc1ccc(C(=O)Nc2ccccc2N2CCCCC2)o1,–
< 1 µM,99%,O=C(Nc1ccccc1N1CCCCC1)c1cc([N+](=O)[O-])c[nH]1,–
< 1 µM,100%,O=C(Nc1cc(CO)ccc1N1CCCCC1)c1ccc([N+](=O)[O-])o1,–
< 1 µM,98%,O=C(Nc1ccccc1N1CCC(O)CC1)c1ccc([N+](=O)[O-])o1,–
< 1 µM,100%,O=C(Nc1ccccc1N1CCCCCC1)c1ccc([N+](=O)[O-])o1,–
–,91%,O=C(Nc1ccccc1N1CCCCC1)c1ccc([N+](=O)[O-])o1,–
< 1 µM,96%,CC1CCCN(c2ccccc2NC(=O)c2ccc([N+](=O)[O-])o2)C1 (stereo not drawn),–
> 1 µM,90%,O=C(Nc1ccccc1N1CCCCC1)c1cc([N+](=O)[O-])ccn1,–
> 1 µM,89%,O=C(Nc1ccccc1N1CCOCC1)c1ccc([N+](=O)[O-])o1,–
> 1 µM,88%,O=C(Nc1ccccc1N1CCCCC1)c1ccc(Cl)o1,–
> 1 µM,77%,O=C(Nc1ccccc1N1CCCCC1)c1cccc([N+](=O)[O-])c1,–
> 1 µM,68%,O=C(Nc1ccccc1N1CCCCC1)c1ccc(Br)o1,–
> 1 µM,60%,CC(=O)c1ccc(C(=O)Nc2ccccc2N2CCCCC2)s1,–
> 1 µM,61%,O=C(Nc1ccccc1N1CCCCC1)c1n[nH]cc1[N+](=O)[O-],–
> 1 µM,24%,O=C(O)c1ccc(C(=O)Nc2ccccc2N2CCCCC2)o1,–
> 1 µM,86%,O=Cc1ccc(C(=O)Nc2ccccc2N2CCCCC2)o1,–
< 1 µM,–,O=C(Nc1cc(F)ccc1N1CCCCC1)c1ccc([N+](=O)[O-])o1,–
< 1 µM,–,N#Cc1ccc(C(=O)Nc2ccc(F)cc2N2CCCCC2)o1,inhibition at 2 µM: 94%
> 1 µM,–,O=C(Nc1ccccc1N1CCCCC1)c1cc([N+](=O)[O-])n[nH]1,inhibition at 2 µM: 50%
